Activity calls are given as the source filed them.
Key:
[1] = biological target: T1, Calpain-2 catalytic subunit (Sus scrofa, UniProt P43367); assay: m-calpain protease blockers, concentration series – biochemical, fluorogenic peptide substrate, dose response (AID 1420); format: functional
T1 sequence (P43367 whole entry): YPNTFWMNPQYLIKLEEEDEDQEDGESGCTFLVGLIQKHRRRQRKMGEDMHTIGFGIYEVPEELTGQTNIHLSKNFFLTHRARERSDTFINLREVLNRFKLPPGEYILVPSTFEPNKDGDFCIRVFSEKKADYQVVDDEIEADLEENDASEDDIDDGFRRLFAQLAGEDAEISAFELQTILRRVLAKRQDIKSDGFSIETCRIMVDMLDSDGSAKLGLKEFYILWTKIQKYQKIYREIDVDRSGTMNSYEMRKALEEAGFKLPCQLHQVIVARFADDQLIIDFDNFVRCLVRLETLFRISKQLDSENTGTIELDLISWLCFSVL

[2] = A cytotoxicity screen of small molecule inhibitors of the PhoP region in Salmonella typhi identified in the primary screen. [Related pubchem assays: 1850, 1864, 1985 ]; format: functional
[3] = biological target: Voltage-dependent T-type calcium channel subunit alpha-1H (Homo sapiens, UniProt O95180); format: functional;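 note: channel activity triggered by adding a high calcium stimulation buffer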
Voltage-dependent T-type calcium channel subunit alpha-1H, sequence (O95180 whole entry): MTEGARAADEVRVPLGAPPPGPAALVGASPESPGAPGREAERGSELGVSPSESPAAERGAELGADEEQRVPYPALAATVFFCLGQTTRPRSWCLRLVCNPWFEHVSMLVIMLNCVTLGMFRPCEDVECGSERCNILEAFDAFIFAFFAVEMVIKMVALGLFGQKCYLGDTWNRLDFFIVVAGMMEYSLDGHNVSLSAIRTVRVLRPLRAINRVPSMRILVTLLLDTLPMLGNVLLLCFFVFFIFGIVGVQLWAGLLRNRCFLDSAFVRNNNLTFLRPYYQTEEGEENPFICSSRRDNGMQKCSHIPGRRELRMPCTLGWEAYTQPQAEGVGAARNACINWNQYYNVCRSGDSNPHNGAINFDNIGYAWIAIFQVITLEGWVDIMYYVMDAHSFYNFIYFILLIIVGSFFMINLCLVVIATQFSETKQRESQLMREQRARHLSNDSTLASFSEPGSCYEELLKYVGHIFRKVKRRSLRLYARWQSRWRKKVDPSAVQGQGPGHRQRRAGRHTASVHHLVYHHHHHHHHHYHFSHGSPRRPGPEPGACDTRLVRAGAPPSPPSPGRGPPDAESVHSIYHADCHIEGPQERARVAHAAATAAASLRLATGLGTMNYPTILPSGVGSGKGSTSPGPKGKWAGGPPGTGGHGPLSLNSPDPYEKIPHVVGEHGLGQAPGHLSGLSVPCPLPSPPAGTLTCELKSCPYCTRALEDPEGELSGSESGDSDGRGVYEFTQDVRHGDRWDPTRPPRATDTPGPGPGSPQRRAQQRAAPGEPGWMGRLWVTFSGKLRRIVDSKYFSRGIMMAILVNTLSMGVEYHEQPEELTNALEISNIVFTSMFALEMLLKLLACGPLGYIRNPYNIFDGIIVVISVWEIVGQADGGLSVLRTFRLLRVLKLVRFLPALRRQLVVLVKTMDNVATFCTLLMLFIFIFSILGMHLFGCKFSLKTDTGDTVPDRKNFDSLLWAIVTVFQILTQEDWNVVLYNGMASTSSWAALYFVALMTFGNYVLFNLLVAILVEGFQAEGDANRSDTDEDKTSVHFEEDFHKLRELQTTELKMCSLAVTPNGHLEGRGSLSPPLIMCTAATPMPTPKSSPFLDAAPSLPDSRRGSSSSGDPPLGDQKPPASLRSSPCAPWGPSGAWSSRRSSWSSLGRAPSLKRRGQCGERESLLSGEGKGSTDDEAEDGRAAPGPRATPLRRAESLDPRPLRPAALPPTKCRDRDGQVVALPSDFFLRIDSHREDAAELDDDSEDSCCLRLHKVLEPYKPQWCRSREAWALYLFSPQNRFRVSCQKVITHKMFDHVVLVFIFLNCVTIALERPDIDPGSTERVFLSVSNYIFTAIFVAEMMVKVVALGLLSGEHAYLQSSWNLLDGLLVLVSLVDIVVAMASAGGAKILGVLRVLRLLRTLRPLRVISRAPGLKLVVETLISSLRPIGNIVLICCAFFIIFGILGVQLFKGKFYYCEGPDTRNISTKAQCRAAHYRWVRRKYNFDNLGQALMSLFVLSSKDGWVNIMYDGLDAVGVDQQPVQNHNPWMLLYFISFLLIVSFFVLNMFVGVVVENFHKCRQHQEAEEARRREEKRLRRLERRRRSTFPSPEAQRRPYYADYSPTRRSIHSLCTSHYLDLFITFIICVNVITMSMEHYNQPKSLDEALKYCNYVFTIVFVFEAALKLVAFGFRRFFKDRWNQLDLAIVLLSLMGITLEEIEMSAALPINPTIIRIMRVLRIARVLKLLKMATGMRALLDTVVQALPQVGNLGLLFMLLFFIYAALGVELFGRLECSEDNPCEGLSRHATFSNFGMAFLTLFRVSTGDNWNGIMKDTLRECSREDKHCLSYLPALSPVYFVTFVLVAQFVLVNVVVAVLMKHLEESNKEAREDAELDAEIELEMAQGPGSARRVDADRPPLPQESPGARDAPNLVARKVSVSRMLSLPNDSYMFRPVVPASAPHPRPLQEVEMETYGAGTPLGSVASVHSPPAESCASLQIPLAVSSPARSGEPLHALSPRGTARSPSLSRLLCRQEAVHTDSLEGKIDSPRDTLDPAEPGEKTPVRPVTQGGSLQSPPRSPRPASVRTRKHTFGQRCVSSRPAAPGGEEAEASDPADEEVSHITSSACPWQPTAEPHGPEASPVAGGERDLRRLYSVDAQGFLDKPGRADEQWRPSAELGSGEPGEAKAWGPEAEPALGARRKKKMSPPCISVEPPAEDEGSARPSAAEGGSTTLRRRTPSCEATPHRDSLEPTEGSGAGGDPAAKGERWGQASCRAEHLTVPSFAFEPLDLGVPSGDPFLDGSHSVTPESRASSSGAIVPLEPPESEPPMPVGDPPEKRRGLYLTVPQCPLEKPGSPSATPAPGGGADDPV

Leucine aminopeptidase = biological target: T2, Leucine aminopeptidase (Plasmodium falciparum 3D7, UniProt Q8IL11); assay: P. falciparum M17LAP inhibitors, primary screen, biochemical, fluorogenic H-Leu-NHMec substrate, 1536-well (AID 1619); format: functional
T2 sequence (Q8IL11 whole entry): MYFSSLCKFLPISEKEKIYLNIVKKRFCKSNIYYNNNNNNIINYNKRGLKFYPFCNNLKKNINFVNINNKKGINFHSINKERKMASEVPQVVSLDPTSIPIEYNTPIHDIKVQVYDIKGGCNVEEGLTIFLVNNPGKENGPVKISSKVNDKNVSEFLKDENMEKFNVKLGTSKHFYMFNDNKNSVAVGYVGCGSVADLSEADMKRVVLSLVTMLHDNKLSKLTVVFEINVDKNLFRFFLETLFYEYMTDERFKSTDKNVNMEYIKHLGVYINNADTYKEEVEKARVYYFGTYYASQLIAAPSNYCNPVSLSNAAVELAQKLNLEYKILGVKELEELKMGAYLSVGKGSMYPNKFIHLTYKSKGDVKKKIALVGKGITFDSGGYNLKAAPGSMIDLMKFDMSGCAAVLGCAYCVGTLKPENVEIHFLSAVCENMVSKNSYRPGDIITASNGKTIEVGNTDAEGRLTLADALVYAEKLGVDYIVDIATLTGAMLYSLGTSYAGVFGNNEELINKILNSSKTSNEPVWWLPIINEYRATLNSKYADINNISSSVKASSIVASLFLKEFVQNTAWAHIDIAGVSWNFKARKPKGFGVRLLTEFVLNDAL

[4] = Luminescence Cell-Based Dose Retest to Confirm Inhibitors of Cancer Stem Cells. [Related pubchem assays (depositor defined):AID2717, AID2721]; format: functional; details: Homo sapiens
[5] = viability loss of HPDE-C7K cells – cell-based, fluorescence, HTS, primary screen (AID 431); format: functional; details: Homo sapiens
[6] = HPDE-C7 pancreatic duct cell viability loss – fluorescence, HTS (AID 430); format: functional, cell-based; details: Homo sapiens
[7] = viability of uninfected HEp-2 cells – cell-based, HTS, cytotoxicity control for RSV inhibitor project, dose response (AID 2410); format: functional; details: human respiratory syncytial virus
[8] = IC50 of Artemis nuclease activity blockers – biochemical, fluorescence intensity, dose response (AID 720701); format: functional;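 note: Artemis endonuclease enzyme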
Cytochrome P450 2D6 = Cytochrome P450 2D6 (Homo sapiens, UniProt P10635);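 note: CYP2D6 member of a cytochrome P450 panel assay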
Cytochrome P450 2D6, sequence (P10635 whole entry): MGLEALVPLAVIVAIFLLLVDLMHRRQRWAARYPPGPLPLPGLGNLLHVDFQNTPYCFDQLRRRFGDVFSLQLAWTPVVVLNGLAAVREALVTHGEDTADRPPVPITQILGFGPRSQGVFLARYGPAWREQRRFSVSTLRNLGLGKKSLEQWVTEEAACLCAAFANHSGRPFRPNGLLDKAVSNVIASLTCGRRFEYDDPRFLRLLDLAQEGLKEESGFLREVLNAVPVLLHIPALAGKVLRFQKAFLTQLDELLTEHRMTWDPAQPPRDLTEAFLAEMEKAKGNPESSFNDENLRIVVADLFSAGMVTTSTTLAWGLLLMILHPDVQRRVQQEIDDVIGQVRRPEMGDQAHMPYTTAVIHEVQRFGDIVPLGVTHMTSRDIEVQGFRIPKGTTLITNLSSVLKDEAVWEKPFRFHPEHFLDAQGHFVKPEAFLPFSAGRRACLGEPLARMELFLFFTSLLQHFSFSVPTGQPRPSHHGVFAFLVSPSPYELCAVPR

Cytochrome P450 2C9 = Cytochrome P450 2C9 (Homo sapiens, UniProt P11712)
Cytochrome P450 2C9, sequence (P11712 whole entry): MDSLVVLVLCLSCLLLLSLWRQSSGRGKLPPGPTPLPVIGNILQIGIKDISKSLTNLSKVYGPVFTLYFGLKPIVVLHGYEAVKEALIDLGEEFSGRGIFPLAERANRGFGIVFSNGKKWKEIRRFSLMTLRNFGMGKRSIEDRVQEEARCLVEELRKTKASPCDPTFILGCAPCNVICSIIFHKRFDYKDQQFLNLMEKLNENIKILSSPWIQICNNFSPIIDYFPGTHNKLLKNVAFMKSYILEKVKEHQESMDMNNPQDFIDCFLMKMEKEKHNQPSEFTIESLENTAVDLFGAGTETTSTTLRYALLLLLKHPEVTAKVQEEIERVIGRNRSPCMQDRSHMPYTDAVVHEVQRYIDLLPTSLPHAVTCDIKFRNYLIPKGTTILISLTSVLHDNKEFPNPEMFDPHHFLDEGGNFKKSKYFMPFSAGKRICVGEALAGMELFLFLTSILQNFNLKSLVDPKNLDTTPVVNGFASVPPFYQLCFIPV

Protein RecA = biological target: T3, Protein RecA (Mycobacterium tuberculosis, UniProt P9WHJ3); assay: Fluorescence Cell-Free Homogeneous Dose Retest to Identify Inhibitors of RecA-Intein Splicing Activity. [Related pubchem assays (depositor defined):AID2097, AID2223, AID489010, AID492950]; format: functional
T3 sequence (P9WHJ3 whole entry): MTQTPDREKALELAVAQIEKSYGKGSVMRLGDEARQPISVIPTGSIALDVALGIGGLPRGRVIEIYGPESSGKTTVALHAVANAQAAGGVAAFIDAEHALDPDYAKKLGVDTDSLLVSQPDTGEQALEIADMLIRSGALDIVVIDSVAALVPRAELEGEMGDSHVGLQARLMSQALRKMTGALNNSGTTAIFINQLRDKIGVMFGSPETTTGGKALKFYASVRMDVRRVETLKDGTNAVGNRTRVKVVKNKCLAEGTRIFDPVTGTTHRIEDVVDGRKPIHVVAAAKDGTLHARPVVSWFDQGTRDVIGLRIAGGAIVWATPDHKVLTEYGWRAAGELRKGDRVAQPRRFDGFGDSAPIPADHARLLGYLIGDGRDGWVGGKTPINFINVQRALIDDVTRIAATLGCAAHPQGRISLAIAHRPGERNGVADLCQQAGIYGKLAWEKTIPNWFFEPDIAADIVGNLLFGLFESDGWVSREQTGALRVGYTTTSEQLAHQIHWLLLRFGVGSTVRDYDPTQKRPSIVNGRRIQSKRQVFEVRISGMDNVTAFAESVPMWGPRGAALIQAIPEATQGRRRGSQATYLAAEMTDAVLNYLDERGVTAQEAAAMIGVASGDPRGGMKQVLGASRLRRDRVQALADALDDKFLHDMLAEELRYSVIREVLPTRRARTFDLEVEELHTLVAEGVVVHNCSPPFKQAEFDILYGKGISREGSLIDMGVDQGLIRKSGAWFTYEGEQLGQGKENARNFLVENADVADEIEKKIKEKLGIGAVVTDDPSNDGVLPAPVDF

[9] = biological target: T4, Replicative DNA helicase DnaB (Mycobacterium tuberculosis, UniProt P9WMR3); assay: DnaB intein splicing inhibitors, dose response, biochemical, cell-free fluorescence (AID 449749); format: functional
T4 sequence (P9WMR3 whole entry): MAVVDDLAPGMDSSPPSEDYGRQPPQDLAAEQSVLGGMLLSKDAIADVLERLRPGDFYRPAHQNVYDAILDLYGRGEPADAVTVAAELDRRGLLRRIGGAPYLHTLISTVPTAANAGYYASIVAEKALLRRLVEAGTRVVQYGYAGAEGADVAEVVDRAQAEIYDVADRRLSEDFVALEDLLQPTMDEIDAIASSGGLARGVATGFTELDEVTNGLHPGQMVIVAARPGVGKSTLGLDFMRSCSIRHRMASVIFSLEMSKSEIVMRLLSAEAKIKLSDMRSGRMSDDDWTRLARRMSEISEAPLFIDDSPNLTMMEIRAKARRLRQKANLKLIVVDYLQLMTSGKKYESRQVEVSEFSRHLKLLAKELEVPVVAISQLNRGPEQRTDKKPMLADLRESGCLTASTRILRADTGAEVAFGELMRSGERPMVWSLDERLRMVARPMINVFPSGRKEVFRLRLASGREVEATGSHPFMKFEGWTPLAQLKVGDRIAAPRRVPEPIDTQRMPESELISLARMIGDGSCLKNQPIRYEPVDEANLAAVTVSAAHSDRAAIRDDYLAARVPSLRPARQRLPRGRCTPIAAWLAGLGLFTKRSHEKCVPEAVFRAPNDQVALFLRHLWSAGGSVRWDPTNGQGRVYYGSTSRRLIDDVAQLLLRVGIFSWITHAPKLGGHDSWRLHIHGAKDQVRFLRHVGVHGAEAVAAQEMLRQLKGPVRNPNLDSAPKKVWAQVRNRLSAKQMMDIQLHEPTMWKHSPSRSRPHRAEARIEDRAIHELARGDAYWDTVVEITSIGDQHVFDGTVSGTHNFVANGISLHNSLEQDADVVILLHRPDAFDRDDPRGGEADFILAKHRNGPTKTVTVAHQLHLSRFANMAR

Estrogen receptor beta [10] = biological target: T5, Estrogen receptor beta (Homo sapiens, UniProt Q92731); assay: blockers of SRC-3 recruitment to ERβ – biochemical, ELISA, streptavidin-HRP readout, orthogonal assay, confirmation (AID 1060)
T5 sequence (Q92731 whole entry): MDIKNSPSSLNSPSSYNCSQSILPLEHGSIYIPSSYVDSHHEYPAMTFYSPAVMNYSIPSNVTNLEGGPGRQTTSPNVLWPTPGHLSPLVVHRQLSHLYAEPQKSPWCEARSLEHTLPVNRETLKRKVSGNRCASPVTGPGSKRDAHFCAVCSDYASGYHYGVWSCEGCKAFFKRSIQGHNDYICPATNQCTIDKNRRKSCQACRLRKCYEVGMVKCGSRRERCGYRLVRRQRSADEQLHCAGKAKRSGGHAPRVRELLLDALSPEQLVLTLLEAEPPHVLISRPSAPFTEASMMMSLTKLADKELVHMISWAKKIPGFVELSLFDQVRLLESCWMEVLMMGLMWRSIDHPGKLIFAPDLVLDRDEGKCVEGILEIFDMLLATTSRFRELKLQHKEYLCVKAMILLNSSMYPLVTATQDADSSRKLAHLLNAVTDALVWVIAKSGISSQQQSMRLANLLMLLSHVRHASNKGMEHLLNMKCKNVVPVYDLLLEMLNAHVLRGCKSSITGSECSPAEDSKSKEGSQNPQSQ

Estrogen receptor beta [11] = biological target: T5, Estrogen receptor beta
[12] = Luminescence Cell-Based Dose Response HTS to Identify Inhibitors of 5'UTR Stem-Loop Driven Prion Protein mRNA Translation in H4 Neuroglioblastoma Cells. [Related pubchem assays: 1827 (Project Summary), 1813 (Primary HTS)]; format: functional
[13] = alpha-synuclein stem-loop luciferase translation blockers – H4 neuroglioma cells, luminescence, confirmation (AID 1988); format: functional, cell-based
[14] = biological target: FAD-linked sulfhydryl oxidase ALR (Homo sapiens, UniProt P55789); assay: ALR-catalysed DTT oxidation blockers – biochemical, H2O2 detection, luminescence, cherry-pick, dose response (AID 493248)
FAD-linked sulfhydryl oxidase ALR, sequence (P55789 whole entry): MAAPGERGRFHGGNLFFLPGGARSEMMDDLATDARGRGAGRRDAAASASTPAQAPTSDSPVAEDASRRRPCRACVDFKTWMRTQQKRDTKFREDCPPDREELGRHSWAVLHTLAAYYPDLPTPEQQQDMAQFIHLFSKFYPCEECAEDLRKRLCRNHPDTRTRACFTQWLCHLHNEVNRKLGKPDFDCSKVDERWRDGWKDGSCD

[15] = biological target: T6, Rac GTPase-activating protein 1 (Homo sapiens, UniProt Q9H0H5); assay: blockers of MgcRacGAP-driven Rac1 GTP hydrolysis – biochemical, ADP Hunter fluorescence, primary and confirmatory, confirmation (AID 624330); format: functional
T6 sequence (Q9H0H5 whole entry): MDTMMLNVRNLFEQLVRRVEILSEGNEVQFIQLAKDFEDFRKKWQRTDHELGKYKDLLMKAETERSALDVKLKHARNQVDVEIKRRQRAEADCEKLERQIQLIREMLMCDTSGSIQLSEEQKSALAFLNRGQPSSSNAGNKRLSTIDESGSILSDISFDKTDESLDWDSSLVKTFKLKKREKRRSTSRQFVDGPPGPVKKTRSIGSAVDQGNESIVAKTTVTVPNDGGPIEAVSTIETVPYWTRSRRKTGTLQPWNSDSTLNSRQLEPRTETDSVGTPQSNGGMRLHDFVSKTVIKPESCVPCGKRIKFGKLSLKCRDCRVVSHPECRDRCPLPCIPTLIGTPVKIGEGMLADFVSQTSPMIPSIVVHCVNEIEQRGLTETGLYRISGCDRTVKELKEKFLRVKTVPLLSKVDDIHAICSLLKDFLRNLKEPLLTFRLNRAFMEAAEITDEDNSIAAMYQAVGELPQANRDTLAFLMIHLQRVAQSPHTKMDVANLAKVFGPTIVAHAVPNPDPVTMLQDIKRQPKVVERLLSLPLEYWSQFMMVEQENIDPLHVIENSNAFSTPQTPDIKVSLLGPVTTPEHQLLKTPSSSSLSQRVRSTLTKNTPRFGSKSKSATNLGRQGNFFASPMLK

## N#CC(C#N)=C(N)CSc1cccc[n+]1[O-]
[1]
  IC50: > 50 µM (not active)

## CCC1Oc2ccc(C)cc2N(CC(=O)NCC2COc3ccccc3O2)C1=O (stereo unspecified)
[2]
  EC50: > 50 µM (active)
[3]
  EC50: 5.63 µM (active)

## O=c1oc2ccccc2nc1/C=C(\O)c1ccccc1
[2]
  EC50: > 50 µM (active)

## CCOC(=O)c1c(NC(=O)C2C3C=CC(C3)C2C(=O)O)sc2c1CCC(C)C2 (stereo unspecified)
Leucine aminopeptidase
  IC50: 15.7 µM (active)

## CC(C)(C)OC(=O)NCCCC[C@H](NC(=O)c1[nH]cnc1C(=O)NCc1ccccc1)C(=O)OC(C)(C)C
[1]
  IC50: 10.5 µM (not active)

## CCCCN(C)c1nc(-c2ccco2)c2c(c1C#N)CC(C)(C)OC2
[4]
  AC50: 7.53 µM (active)
[5]
  EC50: 13.9 µM (active)
[6]
  EC50: 13.9 µM (active)

## Cc1ccc(Cn2c(C)nc3c(c2=O)c2nc4ccccc4nc2n3Cc2ccco2)cc1
[7]
  CC50: 29 µM (active)
[8]
  IC50: > 20 µM (inactive)

## Cc1ccccc1C(=O)Nc1nncs1
Leucine aminopeptidase
  IC50: 25.4 µM (active)

## O=C(CCC1CCCCC1)Nc1c2c(nn1-c1ccc(F)cc1)CS(=O)(=O)C2
Cytochrome P450 2D6
  AC50: 11.2 µM (inconclusive)
[5]
  EC50: > 20 µM (not active)
[6]
  EC50: > 20 µM (not active)
Cytochrome P450 2C9
  AC50: 12.6 µM (inconclusive)

## Cc1ccc(SCc2n[nH]c3c2C2(CCSCC2)C(C#N)=C(N)O3)cc1
Protein RecA
  EC50: 2.42 µM (active)
[9]
  AC50: 2.94 µM (active)
Leucine aminopeptidase
  IC50: 91 µM (active)

## CCCN(CCC)CC(=O)Nc1cccc2c1OCO2
[2]
  EC50: > 50 µM (active)

## O=C(Cc1cccs1)Nc1ccc(-c2nnn(CC(=O)N3CCOCC3)n2)cc1
Estrogen receptor beta [10]
  IC50: > 50 µM (not active)
Estrogen receptor beta [11]
  IC50: 2.92 µM (active)

## O=[N+]([O-])c1cc(/C=N/n2cnnc2)ccc1N1CCCC1
[12]
  EC50: 16.9 µM (active)
[1]
  IC50: 36.6 µM (not active)
[13]
  EC50: 9.55 µM (active)

## CC(C)(C)c1nnc2sc(SC/C(O)=C(\C#N)c3nc4ccccc4[nH]3)nn2c1=O
Estrogen receptor beta [10]
  IC50: 40.6 µM (not active)
Estrogen receptor beta [11]
  IC50: 4 µM (active)

## O=C(N/N=C/c1ccc(O)c(O)c1)C1c2ccccc2Oc2ccccc21
[14]
  AC50: 0.439 µM (active)
[15]
  IC50: 50.6 µM (active)
[8]
  IC50: > 20 µM (inactive)

## O=C(CC1Sc2ccccc2NC1=O)Nc1cccc(C(=O)O)c1 (stereo unspecified)
Leucine aminopeptidase
  IC50: 2.94 µM (active)

Source: ChEMBL document CHEMBL1201862, “PubChem BioAssay data set” (2004)
